Data taken from patent US11453703B2, “Heterotandem bicyclic peptide complexes” (BicycleTX Limited, priority 2018, dated 2022).
Starred links: 1 amine or outer side, 2 acyl side, 3 side chain; linkers in the order of their positions; H or OH if unused. Positions of bridges follow the written chain, without caps; N, C: chain ends. Non-standard residues stand in square brackets, D forms with d. Residues, ends and D or L forms follow the SMILES beside them. Chains are numbered I, II in the order given. TATA = O=C(CC[*:1])N1CN(C(=O)CC[*:2])CN(C(=O)CC[*:3])C1; X2 = O=C(CCOCCOCCOCCOCCOCCn1cc(CCC(=O)[*:2])nn1)[*:1]; Hyp = O=C(O)[C@@H]1C[C@@H](O)CN1; hArg = N=C(N)NCCCC[C@H](N)C(=O)O; tBuAla = CC(C)(C)C[C@H](N)C(=O)O; Nle = CCCC[C@H](N)C(=O)O

How the values were obtained:
CD137 [1] = molecular target: T1, CD137 (Homo sapiens, UniProt Q07011); assay: CD137 reporter assay, co-culture with PD-L1 expressing cell line RKO; format: cell-based; design: host or cells: Jurkat reporter cells; settings: tumour target PD-L1, co-culture with RKO, 6 h
Procedure: (§1) Culture medium referred to as R1 media is prepared by adding 1% FBS to RPMI-1640 (component of Promega kit CS196005). Serial dilutions of test articles in R1 are prepared in a sterile 96 well-plate. Use 25 μl per well of test articles or R1 (as a background control) to designated wells in white cell culture plate. Tumour cells* are harvested and resuspended at a concentration of 400,000 cells/mL in R1 media. Twenty five (25) μL/well tumour cells are used in white cell culture plate. Jurkat cells (Promega kit CS196005, 0.5 mL) are thawed in the water bath and then added to 5 ml pre-warmed R1 medium. Twenty five (25) μL/well Jurkat cells are used in white cell culture plate. Incubate the cells and test articles for 6h at 37° C., 5% CO2. At the end of 6 h, add 75 μl/well Bio-Glo™ (Promega) and incubate for 10 min before reading luminescence in a plate reader (Clariostar, BMG). The fold change relative to cells (Jurkat cells+Cell line used in co-culture) is calculated and plotted in GraphPad Prism as log(agonist) vs response to determine EC50 (nM) and Fold Induction over background (Max)

CD137 [2] = molecular target: T1, CD137; assay: CD137 reporter assay, co-culture with EphA2 tumour cells; format: cell-based; design: host or cells: Jurkat reporter cells
Procedure: as §1

[3] = tumour target EphA2, co-culture with PC3, 6 h

T1 sequence (Q07011 24-255): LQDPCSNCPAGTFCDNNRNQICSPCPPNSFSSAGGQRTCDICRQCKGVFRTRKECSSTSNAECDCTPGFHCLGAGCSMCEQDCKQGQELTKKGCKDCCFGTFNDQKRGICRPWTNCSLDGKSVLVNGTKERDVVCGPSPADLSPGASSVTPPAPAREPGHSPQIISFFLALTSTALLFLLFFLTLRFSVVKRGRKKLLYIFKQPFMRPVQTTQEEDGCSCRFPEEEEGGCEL

SMILES: CCCC[C@@H]1NC(=O)[C@H](Cc2ccc(O)cc2)NC(=O)[C@@H]2CCCN2C(=O)[C@H](CC(=O)O)NC(=O)[C@H](C)NC(=O)[C@H](Cc2ccccc2)NC(=O)[C@@H]2CSCCC(=O)N3CN(CN(C3)C(=O)CCSC[C@@H](C(=O)N[C@@H](C)C(N)=O)NC1=O)C(=O)CCSC[C@H](NC(C)=O)C(=O)N[C@@H](CC(C)(C)C)C(=O)N1CCC[C@H]1C(=O)N[C@@H](CCCCNC(=O)CCOCCOCCOCCOCCOCCn1cc(CCC(=O)NCCCC[C@@H]3NC(=O)[C@H](CCC(N)=O)NC(=O)[C@@H]4CSCCC(=O)N5CN(CN(C5)C(=O)CCSC[C@@H](C(=O)N5CCC[C@H]5C(=O)N[C@@H](CO)C(=O)N[C@@H](Cc5c[nH]cn5)C(N)=O)NC(=O)[C@H](CC(C)C)NC(=O)[C@H](Cc5c[nH]cn5)NC(=O)[C@H](CC(C)C)NC3=O)C(=O)CCSC[C@H](NC(=O)[C@H](CCCCN)NC(=O)[C@H](CC(=O)O)NC(=O)[C@H](CO)NC(C)=O)C(=O)N[C@@H](CO)C(=O)N[C@@H](C)C(=O)NCC(=O)N[C@@H](Cc3c[nH]c5ccccc35)C(=O)N[C@@H](CC(C)C)C(=O)N[C@@H]([C@@H](C)O)C(=O)N[C@@H](CCSC)C(=O)N4)nn1)C(=O)N[C@H](C)C(=O)N1CCC[C@H]1C(=O)N[C@@H](Cc1ccc(O)cc1)C(=O)N2 [BCY11379]
- fold induction (CD137 [1]; read-out: Fold Induction over Background): 6

SMILES: CCCC[C@@H]1NC(=O)[C@H](Cc2ccc(O)cc2)NC(=O)[C@@H]2CCCN2C(=O)[C@H](CC(=O)O)NC(=O)[C@H](C)NC(=O)[C@H](Cc2ccccc2)NC(=O)[C@@H]2CSCCC(=O)N3CN(CN(C3)C(=O)CCSC[C@@H](C(=O)N[C@@H](CNC(=O)Cn3cc(CCC(=O)NCCCC[C@@H]4NC(=O)[C@H](CCC(N)=O)NC(=O)[C@@H]5CSCCC(=O)N6CN(CN(C6)C(=O)CCSC[C@@H](C(=O)N6CCC[C@H]6C(=O)N[C@@H](CO)C(=O)N[C@@H](Cc6c[nH]cn6)C(N)=O)NC(=O)[C@H](CC(C)C)NC(=O)[C@H](Cc6c[nH]cn6)NC(=O)[C@H](CC(C)C)NC4=O)C(=O)CCSC[C@H](NC(=O)[C@H](CCCCN)NC(=O)[C@H](CC(=O)O)NC(=O)[C@H](CO)NC(C)=O)C(=O)N[C@@H](CO)C(=O)N[C@@H](C)C(=O)NCC(=O)N[C@@H](Cc4c[nH]c6ccccc46)C(=O)N[C@@H](CC(C)C)C(=O)N[C@@H]([C@@H](C)O)C(=O)N[C@@H](CCSC)C(=O)N5)nn3)C(N)=O)NC1=O)C(=O)CCSC[C@H](NC(C)=O)C(=O)N[C@@H](CC(C)(C)C)C(=O)N1CCC[C@H]1C(=O)N[C@@H](CCC(=O)O)C(=O)N[C@H](C)C(=O)N1CCC[C@H]1C(=O)N[C@@H](Cc1ccc(O)cc1)C(=O)N2 [BCY11378]
- EC50 (CD137 [1]): 0.08 µM
- Fold Induction over Background (CD137 [1]): 3 fold

SMILES: CCCC[C@@H]1NC(=O)[C@H](Cc2ccc(O)cc2)NC(=O)[C@@H]2CCCN2C(=O)[C@H](CC(=O)O)NC(=O)[C@H](C)NC(=O)[C@H](Cc2ccccc2)NC(=O)[C@@H]2CSCCC(=O)N3CN(CN(C3)C(=O)CCSC[C@@H](C(=O)N[C@@H](CNC(=O)CCOCCOCCOCCOCCOCCOCCOCCOCCOCCOCCOCCOCCn3cc(CCC(=O)NCCC(=O)N(C)CC(=O)N(C)CC(=O)N(C)CC(=O)N(C)CC(=O)N(C)CC(=O)N(C)CC(=O)N(C)CC(=O)N(C)CC(=O)N(C)CC(=O)N(C)CC(=O)N[C@@H](C)C(=O)N[C@@H](CCCCNC(=N)N)C(=O)N[C@@H](CC(=O)O)C(=O)N[C@H]4CSCCC(=O)N5CN6CN(C5)C(=O)CCSC[C@H](NC(=O)[C@H](CC(C)C)NC(=O)[C@@H]5CCCN5C(=O)[C@H](CC(N)=O)NC(=O)[C@H](C(C)C)NC(=O)[C@H](CC(C)C)NC(=O)[C@@H]5C[C@@H](O)CN5C4=O)C(=O)N[C@@H](CC(C)C)C(=O)N[C@@H](Cc4c[nH]cn4)C(=O)N4CCC[C@H]4C(=O)N[C@H](CC(=O)O)C(=O)N[C@@H](Cc4c[nH]c5ccccc45)C(=O)N[C@@H](CCCCNC(=N)N)C(=O)N[C@H](C(N)=O)CSCCC6=O)nn3)C(N)=O)NC1=O)C(=O)CCSC[C@H](NC(=O)[C@H](C)NC(C)=O)C(=O)N[C@@H]([C@@H](C)CC)C(=O)N[C@@H](CCC(=O)O)C(=O)N[C@@H](CCC(=O)O)C(=O)NCC(=O)N[C@@H](CCC(N)=O)C(=O)N[C@@H](Cc1ccc(O)cc1)C(=O)N2 [BCY7985]
- induction of CD137 cell activity (CD137 [2]; Promega CD137 luciferase reporter assay, in the presence of EphA2-expressing HT1080 cells (FIG. 3)): strong induction of CD137 cell activity
- CD137 induction (CD137 [2]; in the absence of HT1080 cells (FIG. 3)): no CD137 induction
- Fold Induction over Background (CD137 [2]; tumour target EphA2, co-culture with SC-OV-3, 6 h): 15 fold

SMILES: CCCC[C@@H]1NC(=O)[C@H](Cc2ccc(O)cc2)NC(=O)[C@@H]2CCCN2C(=O)[C@H](CC(=O)O)NC(=O)[C@H](C)NC(=O)[C@H](Cc2ccccc2)NC(=O)[C@@H]2CSCCC(=O)N3CN(CN(C3)C(=O)CCSC[C@@H](C(=O)N[C@@H](C)C(N)=O)NC1=O)C(=O)CCSC[C@H](NC(C)=O)C(=O)N[C@@H](CC(C)(C)C)C(=O)N1CCC[C@H]1C(=O)N[C@@H](CCCCNC(=O)CCOCCOCCOCCOCCOCCOCCOCCOCCOCCOCCOCCOCCn1cc(CCC(=O)NCCC(=O)N(C)CC(=O)N(C)CC(=O)N(C)CC(=O)N(C)CC(=O)N(C)CC(=O)N(C)CC(=O)N(C)CC(=O)N(C)CC(=O)N(C)CC(=O)N(C)CC(=O)N[C@@H](C)C(=O)N[C@@H](CCCCNC(=N)N)C(=O)N[C@@H](CC(=O)O)C(=O)N[C@H]3CSCCC(=O)N4CN5CN(C4)C(=O)CCSC[C@H](NC(=O)[C@H](CC(C)C)NC(=O)[C@@H]4CCCN4C(=O)[C@H](CC(N)=O)NC(=O)[C@H](C(C)C)NC(=O)[C@H](CC(C)C)NC(=O)[C@@H]4C[C@@H](O)CN4C3=O)C(=O)N[C@@H](CC(C)C)C(=O)N[C@@H](Cc3c[nH]cn3)C(=O)N3CCC[C@H]3C(=O)N[C@H](CC(=O)O)C(=O)N[C@@H](Cc3c[nH]c4ccccc34)C(=O)N[C@@H](CCCCNC(=N)N)C(=O)N[C@H](C(N)=O)CSCCC5=O)nn1)C(=O)N[C@H](C)C(=O)N1CCC[C@H]1C(=O)N[C@@H](Cc1ccc(O)cc1)C(=O)N2 [BCY10568]
- Fold Induction over Background (CD137 [2]; [3]): 32 fold

SMILES: CCCC[C@@H]1NC(=O)[C@H](Cc2ccc(O)cc2)NC(=O)[C@@H]2CCCN2C(=O)[C@H](CC(=O)O)NC(=O)[C@H](C)NC(=O)[C@H](Cc2ccccc2)NC(=O)[C@@H]2CSCCC(=O)N3CN(CN(C3)C(=O)CCSC[C@@H](C(=O)N[C@@H](C)C(N)=O)NC1=O)C(=O)CCSC[C@H](NC(C)=O)C(=O)N[C@@H](CC(C)(C)C)C(=O)N1CCC[C@H]1C(=O)N[C@@H](CCC(=O)O)C(=O)N[C@H](CCCCNC(=O)CCc1cn(CCOCCOCCOCCOCCOCCC(=O)N[C@@H](C)C(=O)N[C@@H](CCCCNC(=N)N)C(=O)N[C@@H](CC(=O)O)C(=O)N[C@H]3CSCCC(=O)N4CN5CN(C4)C(=O)CCSC[C@H](NC(=O)[C@H](CC(C)C)NC(=O)[C@@H]4CCCN4C(=O)[C@H](CC(N)=O)NC(=O)[C@H](C(C)C)NC(=O)[C@H](CC(C)C)NC(=O)[C@@H]4C[C@@H](O)CN4C3=O)C(=O)N[C@@H](CC(C)C)C(=O)N[C@@H](Cc3c[nH]cn3)C(=O)N3CCC[C@H]3C(=O)N[C@H](CC(=O)O)C(=O)N[C@@H](Cc3c[nH]c4ccccc34)C(=O)N[C@@H](CCCCNC(=N)N)C(=O)N[C@H](C(N)=O)CSCCC5=O)nn1)C(=O)N1CCC[C@H]1C(=O)N[C@@H](Cc1ccc(O)cc1)C(=O)N2 [BCY10575] (I: A[hArg]DC[Hyp]LVNPLCLHP[dD]W[hArg]C-NH2 / II: Ac-C[tBuAla]PE[dK]PYCFADPY[Nle]CA-NH2; linker I:4-I:11-I:18, II:1-II:8-II:15 via TATA; linker I:N-II:5 via X2)
- EC50 (CD137 [2]; [3]): 0.00062 µM
- Fold Induction over Background (CD137 [2]; [3]): 38 fold

SMILES: CCCC[C@@H]1NC(=O)[C@H](Cc2ccc(O)cc2)NC(=O)[C@@H]2CCCN2C(=O)[C@H](CC(=O)O)NC(=O)[C@H](C)NC(=O)[C@H](Cc2ccccc2)NC(=O)[C@@H]2CSCCC(=O)N3CN(CN(C3)C(=O)CCSC[C@@H](C(=O)N[C@@H](CNC(=O)CCOCCOCCOCCOCCOCCOCCOCCOCCOCCOCCOCCOCCn3cc(CCC(=O)NCCC(=O)N(C)CC(=O)N(C)CC(=O)N(C)CC(=O)N(C)CC(=O)N(C)CC(=O)N(C)CC(=O)N(C)CC(=O)N(C)CC(=O)N(C)CC(=O)N(C)CC(=O)N[C@H](C(=O)NCC(=O)N4CCC[C@H]4C(=O)N[C@H]4CSCCC(=O)N5CN6CN(C5)C(=O)CCSC[C@H](NC(=O)[C@@H]5CCCN5C(=O)[C@H]([C@@H](C)O)NC(=O)[C@@H]5CCCN5C(=O)[C@H](CC(=O)O)NC(=O)[C@H](Cc5c[nH]c7ccccc57)NC(=O)[C@H](CC(C)C)NC4=O)C(=O)N[C@@H](C)C(=O)N[C@@H](CC(N)=O)C(=O)N[C@@H](CC(C)C)C(=O)N[C@@H](Cc4c[nH]cn4)C(=O)N[C@@H](CC(C)C)C(=O)N[C@@H](CCCCNC(=N)N)C(=O)N[C@H](C(N)=O)CSCCC6=O)C(C)C)nn3)C(N)=O)NC1=O)C(=O)CCSC[C@H](NC(=O)[C@H](C)NC(C)=O)C(=O)N[C@@H]([C@@H](C)CC)C(=O)N[C@@H](CCC(=O)O)C(=O)N[C@@H](CCC(=O)O)C(=O)NCC(=O)N[C@@H](CCC(N)=O)C(=O)N[C@@H](Cc1ccc(O)cc1)C(=O)N2 [BCY8943]
- fold induction at 0.1 µM (CD137 [2]; tumour target EphA2, co-culture with PC3, at 100 nM, read-out: Fold Induction over Background at 100 nM): < 2
